In patent US20210045385A1, “PYRIDAZINONE-SUBSTITUTED KETOXIMES AS HERBICIDES” (FMC Corporation, priority 2018, published 2021):

Experiments:
Type in all cases: in vivo
[1] = system: barnyardgrass (Echinochloa crus-galli); test: Test B flooded paddy test, visual plant response rating; conditions: 250 g ai/ha, Flood, applied to paddy water, 2-leaf stage, evaluated after 13 to 15 days
Procedure: (§1) Plant species in the flooded paddy test selected from rice (Oryza sativa), sedge, umbrella (small-flower umbrella sedge, Cyperus difformis), ducksalad (Heteranhera limosa), and barnyardgrass (Echinochloa crus-galli) were grown to the 2-leaf stage for testing. At time of treatment, test pots were flooded to 3 cm above the soil surface treated by application of test compounds directly to the paddy water, and then maintained at that water depth for the duration of the test. Treated plants and controls were maintained in a greenhouse for 13 to 15 days, after which time all species were compared to controls and visually evaluated. […] A dash (-) response means no test result.

[2] = system: ducksalad (Heteranhera limosa); test: as above; conditions: 250 g ai/ha, Flood, applied to paddy water, 2-leaf stage, evaluated after 13 to 15 days
Procedure: as §1

[3] = system: sedge, umbrella (small-flower umbrella sedge, Cyperus difformis); test: as above; conditions: 250 g ai/ha, Flood, applied to paddy water, 2-leaf stage, evaluated after 13 to 15 days
Procedure: as §1

rice (Oryza sativa) = test: as above; conditions: 250 g ai/ha, Flood, applied to paddy water, 2-leaf stage, evaluated after 13 to 15 days
Procedure: as §1

[4] = system: pigweed (Amaranthus retroflexus); test: Test A preemergence, visual plant response rating; conditions: for Pigweed plant response rating: 125 g ai/ha, preemergence, 0 to 100 scale, 0 no effect, 100 complete control; for Pigweed plant response rating (0 to 100 scale): 500 g ai/ha Preemergence, approx. 10 days
Excerpt: (§2) Seeds of plant species selected from barnyardgrass (Echinochloa crus-galli), kochia (Kochia scoparia), ragweed (common ragweed, Ambrosia elatior), Italian ryegrass (Lolium multiflorum), foxtail, giant (giant foxtail, Setaria faberii), foxtail, green (green foxtail, Setaria viridis), and pigweed (Amaranthus retroflexus) were planted into a blend of loam soil and sand and treated preemergence with a directed soil spray using test chemicals formulated in a non-phytotoxic solvent mixture which included a surfactant.
(§3) At the same time, plants selected from these weed species and also wheat (Triticum aestivum), corn (Zea mays), blackgrass (Alopecurus myosuroides), and galium (catchweed bedstraw, Galium aparine) were planted in pots containing the same blend of loam soil and sand and treated with postemergence applications of test chemicals formulated in the same manner. Plants ranged in height from 2 to 10 cm and were in the one- to two-leaf stage for the postemergence treatment. Treated plants and untreated controls were maintained in a greenhouse for approximately 10 days, after which time all treated plants were compared to untreated controls and visually evaluated for injury. Plant response ratings, summarized in Table A, are based on a 0 to 100 scale where 0 is no effect and 100 is complete control. A dash (-) response means no test result.

kochia (Kochia scoparia) [5] = test: Test A preemergence, visual plant response rating; conditions: for Kochia plant response rating: 125 g ai/ha, preemergence, 0 to 100 scale, 0 no effect, 100 complete control; for Kochia plant response rating (0 to 100 scale): 500 g ai/ha Preemergence, approx. 10 days
Excerpt: as §2, §3

[6] = system: barnyardgrass (Echinochloa crus-galli); test: Test A preemergence, visual plant response rating; conditions: for Barnyardgrass plant response rating: 125 g ai/ha, preemergence, 0 to 100 scale, 0 no effect, 100 complete control; for Barnyardgrass plant response rating (0 to 100 scale): 500 g ai/ha Preemergence, approx. 10 days
Excerpt: as §2, §3

[7] = system: Italian ryegrass (Lolium multiflorum); test: Test A preemergence, visual plant response rating; conditions: for Ryegrass, Italian plant response rating: 125 g ai/ha, preemergence, 0 to 100 scale, 0 no effect, 100 complete control; for Ryegrass, Italian plant response rating (0 to 100 scale): 500 g ai/ha Preemergence, approx. 10 days
Excerpt: as §2, §3

[8] = system: foxtail, giant (giant foxtail, Setaria faberii); test: Test A preemergence, visual plant response rating; conditions: for Foxtail, Giant plant response rating: 125 g ai/ha, preemergence, 0 to 100 scale, 0 no effect, 100 complete control; for Foxtail, Giant plant response rating (0 to 100 scale): 500 g ai/ha Preemergence, approx. 10 days
Excerpt: as §2, §3

[9] = system: pigweed (Amaranthus retroflexus); test: Test A postemergence, visual plant response rating; conditions: for Pigweed plant response rating (0 to 100 scale): 500 g ai/ha, postemergence, 0 is no effect, 100 is complete control; for Pigweed plant response rating: Postemergence, 125 g ai/ha, 0 to 100 scale (0 no effect, 100 complete control)
Excerpt: as §2, §3

[10] = system: wheat (Triticum aestivum); test: Test A postemergence, visual plant response rating; conditions: for Wheat plant response rating (0 to 100 scale): 500 g ai/ha, postemergence, 0 is no effect, 100 is complete control; for Wheat plant response rating: Postemergence, 125 g ai/ha, 0 to 100 scale (0 no effect, 100 complete control)
Excerpt: as §2, §3

[11] = system: blackgrass (Alopecurus myosuroides); test: Test A postemergence, visual plant response rating; conditions: for Blackgrass plant response rating (0 to 100 scale): 500 g ai/ha, postemergence, 0 is no effect, 100 is complete control; for Blackgrass plant response rating: Postemergence, 125 g ai/ha, 0 to 100 scale (0 no effect, 100 complete control)
Excerpt: as §2, §3

kochia (Kochia scoparia) [12] = test: Test A postemergence, visual plant response rating; conditions: for Kochia plant response rating (0 to 100 scale): 500 g ai/ha, postemergence, 0 is no effect, 100 is complete control; for Kochia plant response rating: Postemergence, 125 g ai/ha, 0 to 100 scale (0 no effect, 100 complete control)
Excerpt: as §2, §3

[13] = system: barnyardgrass (Echinochloa crus-galli); test: Test A postemergence, visual plant response rating; conditions: for Barnyardgrass plant response rating (0 to 100 scale): 500 g ai/ha, postemergence, 0 is no effect, 100 is complete control; for Barnyardgrass plant response rating: Postemergence, 125 g ai/ha, 0 to 100 scale (0 no effect, 100 complete control)
Excerpt: as §2, §3

[14] = system: Italian ryegrass (Lolium multiflorum); test: Test A postemergence, visual plant response rating; conditions: for Ryegrass, Italian plant response rating (0 to 100 scale): 500 g ai/ha, postemergence, 0 is no effect, 100 is complete control; for Ryegrass, Italian plant response rating: Postemergence, 125 g ai/ha, 0 to 100 scale (0 no effect, 100 complete control)
Excerpt: as §2, §3

[15] = system: foxtail, giant (giant foxtail, Setaria faberii); test: Test A postemergence, visual plant response rating; conditions: for Foxtail, Giant plant response rating (0 to 100 scale): 500 g ai/ha, postemergence, 0 is no effect, 100 is complete control; for Foxtail, Giant plant response rating: Postemergence, 125 g ai/ha, 0 to 100 scale (0 no effect, 100 complete control)
Excerpt: as §2, §3

[16] = system: ragweed (common ragweed, Ambrosia elatior); test: Test A postemergence, visual plant response rating; conditions: for Ragweed plant response rating (0 to 100 scale): 500 g ai/ha, postemergence, 0 is no effect, 100 is complete control; for Ragweed plant response rating: Postemergence, 125 g ai/ha, 0 to 100 scale (0 no effect, 100 complete control)
Excerpt: as §2, §3

corn (Zea mays) = test: Test A postemergence, visual plant response rating; conditions: for Corn plant response rating (0 to 100 scale): 500 g ai/ha, postemergence, 0 is no effect, 100 is complete control; for Corn plant response rating: Postemergence, 125 g ai/ha, 0 to 100 scale (0 no effect, 100 complete control)
Excerpt: as §2, §3

[17] = system: galium (catchweed bedstraw, Galium aparine); test: Test A postemergence, visual plant response rating; conditions: for Galium plant response rating (0 to 100 scale): 500 g ai/ha, postemergence, 0 is no effect, 100 is complete control; for Galium plant response rating: Postemergence, 125 g ai/ha, 0 to 100 scale (0 no effect, 100 complete control)
Excerpt: as §2, §3

Row | Structure (SMILES) | Plant response rating, Barnyardgrass (0 to 100 scale, 0 is no effect, 100 is complete control) [1] | Plant response rating, Ducksalad (0 to 100 scale, 0 is no effect, 100 is complete control) [2] | Plant response rating, Sedge, Umbrella (0 to 100 scale, 0 is no effect, 100 is complete control) [3] | Plant response rating, Rice (0 to 100 scale, 0 is no effect, 100 is complete control) (rice (Oryza sativa)) | Pigweed plant response rating [4] | Pigweed plant response rating (0 to 100 scale) [4] | Kochia plant response rating (kochia (Kochia scoparia) [5]) | Kochia plant response rating (0 to 100 scale) (kochia (Kochia scoparia) [5]) | Barnyardgrass plant response rating [6] | Barnyardgrass plant response rating (0 to 100 scale) [6] | Ryegrass, Italian plant response rating [7] | Ryegrass, Italian plant response rating (0 to 100 scale) [7] | Foxtail, Giant plant response rating [8] | Foxtail, Giant plant response rating (0 to 100 scale) [8] | Pigweed plant response rating (0 to 100 scale) [9] | Pigweed plant response rating [9] | Wheat plant response rating (0 to 100 scale) [10] | Wheat plant response rating [10] | Blackgrass plant response rating (0 to 100 scale) [11] | Blackgrass plant response rating [11] | further results
1 | Cc1nn(C)c(=O)c(/C(=N/OC(C)C)c2ccc(F)c3ccccc23)c1O [Compound 88] | 0 | 0 | 0 | 0 | 100 | 100 | 10 | 90 | 70 | 90 | 90 | 100 | 90 | 100 | 100 | 90 | 50 | 10 | 90 | 80 | Kochia plant response rating (0 to 100 scale) (kochia (Kochia scoparia) [12]): 70; Kochia plant response rating (kochia (Kochia scoparia) [12]): 60; Barnyardgrass plant response rating (0 to 100 scale) [13]: 80; Barnyardgrass plant response rating [13]: 50; Ryegrass, Italian plant response rating (0 to 100 scale) [14]: 100; Ryegrass, Italian plant response rating [14]: 100; Foxtail, Giant plant response rating (0 to 100 scale) [15]: 90; Foxtail, Giant plant response rating [15]: 80; Ragweed plant response rating (0 to 100 scale) [16]: 90; Ragweed plant response rating [16]: 100; Corn plant response rating (0 to 100 scale) (corn (Zea mays)): 30; Corn plant response rating (corn (Zea mays)): 10; Galium plant response rating (0 to 100 scale) [17]: 90; Galium plant response rating [17]: 90
2 | Cc1nn(C)c(=O)c(/C(=N\OC(C)C)c2ccc(F)c3ccccc23)c1O [Compound 89] | 0 | 0 | 0 | 0 | 100 | 100 | 60 | 90 | 70 | 100 | 90 | 100 | 90 | 100 | 100 | 80 | 70 | 50 | 100 | 90 | Kochia plant response rating (0 to 100 scale) (kochia (Kochia scoparia) [12]): 80; Kochia plant response rating (kochia (Kochia scoparia) [12]): 70; Barnyardgrass plant response rating (0 to 100 scale) [13]: 60; Barnyardgrass plant response rating [13]: 40; Ryegrass, Italian plant response rating (0 to 100 scale) [14]: 100; Ryegrass, Italian plant response rating [14]: 100; Foxtail, Giant plant response rating (0 to 100 scale) [15]: 80; Foxtail, Giant plant response rating [15]: 70; Ragweed plant response rating (0 to 100 scale) [16]: 90; Ragweed plant response rating [16]: 90; Corn plant response rating (0 to 100 scale) (corn (Zea mays)): 30; Corn plant response rating (corn (Zea mays)): 20; Galium plant response rating (0 to 100 scale) [17]: 90; Galium plant response rating [17]: 90
3 | CON=C(c1cc(Cl)ccc1Cl)c1c(O)c(C)nn(C)c1=O [Compound 90] | 0 | 0 | 0 | 0 | 90 | 100 | 50 | 70 | 60 | 80 | 60 | 90 | 50 | 90 | 90 | 60 | 40 | 30 | 90 | 80 | Kochia plant response rating (0 to 100 scale) (kochia (Kochia scoparia) [12]): 80; Kochia plant response rating (kochia (Kochia scoparia) [12]): 60; Barnyardgrass plant response rating (0 to 100 scale) [13]: 60; Barnyardgrass plant response rating [13]: 20; Ryegrass, Italian plant response rating (0 to 100 scale) [14]: 90; Ryegrass, Italian plant response rating [14]: 80; Foxtail, Giant plant response rating (0 to 100 scale) [15]: 80; Foxtail, Giant plant response rating [15]: 30; Ragweed plant response rating (0 to 100 scale) [16]: 90; Ragweed plant response rating [16]: 70; Corn plant response rating (0 to 100 scale) (corn (Zea mays)): 30; Corn plant response rating (corn (Zea mays)): 20; Galium plant response rating (0 to 100 scale) [17]: 90; Galium plant response rating [17]: 90
4 | CON=C(c1cc(Cl)ccc1Cl)c1c(O)c(C)nn(C)c1=O [Compound 98] | 0 | 0 | 0 | 0 | 90 | 100 | 60 | 60 | 50 | 60 | 80 | 90 | 60 | 70 | 80 | 70 | 20 | 0 | 90 | 80 | Kochia plant response rating (0 to 100 scale) (kochia (Kochia scoparia) [12]): 80; Kochia plant response rating (kochia (Kochia scoparia) [12]): 60; Barnyardgrass plant response rating (0 to 100 scale) [13]: 80; Barnyardgrass plant response rating [13]: 50; Ryegrass, Italian plant response rating (0 to 100 scale) [14]: 80; Ryegrass, Italian plant response rating [14]: 80; Foxtail, Giant plant response rating (0 to 100 scale) [15]: 80; Foxtail, Giant plant response rating [15]: 40; Ragweed plant response rating (0 to 100 scale) [16]: 90; Ragweed plant response rating [16]: 80; Corn plant response rating (0 to 100 scale) (corn (Zea mays)): 20; Corn plant response rating (corn (Zea mays)): 0; Galium plant response rating (0 to 100 scale) [17]: 100; Galium plant response rating [17]: 80
